Test results reported in patent publication US20220387344A1, “COMPOSITIONS AND METHODS FOR INHIBITING COLLAGEN LOSS” (LYCORED LTD., priority 2019, published 2022).

What was measured:
NHDF cells = test: Collagen 1a1 secretion by NHDF cells under H2O2 oxidative stress (ELISA); format: cell-based, human; details: 50 μM H2O2
Description: Cells were incubated with Lumenato for 24 h and then hydrogen peroxide (H2O2) was added, and cells were incubated for additional 24 h to induce oxidative stress. The incubation medium was collected and the levels of collagen 1 a 1 protein secretion to the medium were analyzed using a specific ELISA detection kit.

[1] = tested on: KERTr human keratinocytes; test: Viability of KERTr keratinocytes under H2O2 oxidative stress (XTT); format: cell-based; details: H2O2 alone
Description: (§1) The inventors used hydrogen peroxide, H2O2, to induce oxidative stress in KERTr human keratinocytes, and analyzed the effects on cell number (cell death) and the secretion of MMP1. Cells viability was determined using the XTT cell proliferation kit, and MMP1 levels were measured by ELISA.

[2] = tested on: KERTr human keratinocytes; test: MMP1 secretion by KERTr keratinocytes under H2O2 oxidative stress (ELISA); format: cell-based; details: H2O2 alone
Description: as §1

[3] = Plasma carotenoids after Lumenato capsules (bioavailability); format: in vivo; details: delivered within Lumenato capsules, plasma at 1, 2, 3 and 4 weeks post administration
Excerpt: The inventors have examined the bioavailability of carotenoids delivered within Lumenato capsules. The following carotenoids were quantified in the plasma at 1 week, 2 weeks, 3 weeks, and 4 weeks post administration. Phytoene, phytofluene and zeta-carotene which are the main carotenoids in Lumenato (the golden tomato extract) were absorbed well (FIG. 15).

human neutrophils [4] = test: MMP-9 secretion from stimulated human neutrophils (ELISA); format: cell-based; details: agonist alone
Description: (§2) Blood was drawn from healthy volunteers. Neutrophils, at 95% purity were obtained by Ficoll-Hypaque centrifugation, dextran sedimentation, and hypotonic lysis of erythrocytes within 1 hour after blood was drawn. Cells were counted and their viability was determined by trypan blue exclusion. Human MMP-9 concentrations in cell culture supernatants were quantified by ELISA kits (R&D systems Minneapolis, Minn., USA). […] Neutrophils were activated by 100 ng/ml TNFα or 100 ng/ml IL8 that are released from the skin cells during exposure to UV and activated. In addition, neutrophils were activated with […] for comparison.

human neutrophils [5] = test: MPO secretion from stimulated human neutrophils; format: cell-based; details: agonist alone
Description: as §2, with “100 μl of 37° C. O-dianisidine hydrochloride solution (1 mg O-dianisidine, 10 ml phosphate buffer pH 6.0+0.0015% H2O2) were added to 100 μl supernatant” for “Human MMP-9 concentrations”, “a 96-well plate immediately before the optical density was followed” for “cell culture supernatants were quantified”, “the change of absorbance at 450 nm at 2 minute intervals on a Thermomax Microplate Reader (Molecular Devices, Melno Park, Calif.).” for “ELISA kits (R&D systems Minneapolis, Minn., USA).”

human neutrophils [6] = test: MPO activity of TNFα-activated neutrophils incubated overnight with single or combined phytonutrients; format: cell-based; details: sole addition
Description: 100 μl of 37° C. O-dianisidine hydrochloride solution (1 mg O-dianisidine, 10 ml phosphate buffer pH 6.0+0.0015% H2O2) were added to 100 μl supernatant in a 96-well plate immediately before the optical density was followed by the change of absorbance at 450 nm at 2 minute intervals on a Thermomax Microplate Reader (Molecular Devices, Melno Park, Calif.).
Tocopherol and phytosterol were added to 5×10^5 human neutrophils 20 min before addition of 100 ng/ml TNFα and maintained overnight at 37° C. in a humidified atmosphere containing 5% CO2. MPO activity was measured in the supernatant of the cultured neutrophils.
Zeta carotene, phytoene, tocopherol, phytosterol, or combinations thereof, were added to 5×10^5 human neutrophils 20 min before addition of 100 ng/ml TNFα and maintained overnight at 37° C. in humidified atmosphere containing 5% CO2. MPO activity was measured as escribed above.
The inventors examined the effect of multiple phytonutrients on MPO activity in stimulated neutrophils. The sole addition of tocopherol or phytosterol had no effect on the release and activity of MPO from neutrophils activated with TNFα (FIGS. 13A-13B).
The inventors also examined the effect of adding zeta carotene with either phytoene, a tocopherol, or a phytosterol, on MPO activity. […]

[7] = 2 hr of activation, TNFα or IL8 100 ng/ml

## OO [H2O2, hydrogen peroxide]
NHDF cells
  reduction in collagen 1a1 secretion: about 10 fold
[1]
  cell number (cell death): dose dependent cell death
[2]
  secretion of MMP1: increased secretion of MMP1

## CC(C)=CCC/C(C)=C/CC/C(C)=C/CC/C(C)=C/C=C/C=C(\C)CC/C=C(\C)CC/C=C(\C)CCC=C(C)C [phytoene]
[3]
  absorption (plasma concentration): absorbed well

## CC(C)=CCC/C(C)=C/CC/C(C)=C/C=C/C(C)=C/C=C/C=C(\C)CC/C=C(\C)CC/C=C(\C)CCC=C(C)C [phytofluene]
[3]
  absorption (plasma concentration): absorbed well

## CC(C)=CCC/C(C)=C/CC\C(C)=C/C=C/C(C)=C/C=C/C=C(C)/C=C/C=C(/C)CC/C=C(\C)CCC=C(C)C [zeta carotene]
[3]; listed as Zeta carotene
  absorption (plasma concentration): absorbed extremely well
[3]; listed as zeta-carotene
  absorption (plasma concentration): absorbed well

## IL8: interleukin 8, agonist used to stimulate neutrophils
Human neutrophils [4]; [7]
  release of MMP-9: 9.12 ± 0.2 ng/mL
Human neutrophils [4]; 4 hr of activation
  release of MMP-9: 17.86 ± 0.4 ng/mL
Human neutrophils [5]; 4 h of activation
  release of MPO: 0.4 ± 0.08 ng/mL

## TNFα
Human neutrophils [4]; [7]
  release of MMP-9: 16.52 ± 0.5 ng/mL
Human neutrophils [5]; 4 h of activation
  release of MPO: 0.28 ± 0.001 ng/mL

## formyl-Methionine-Leucine-Phenylalanine [fMLP]
Human neutrophils [4]; 30 min of activation
  release of MMP-9: 10.41 ± 0.4 ng/mL
Human neutrophils [4]; 4 hr of activation
  release of MMP-9: 13.45 ± 0.3 ng/mL
Human neutrophils [5]; 30 min of activation
  release of MPO: 0.54 ± 0.004 ng/mL

## phytosterol
Human neutrophils [6]
  effect on release and activity of MPO: no effect

## tocopherol
Human neutrophils [6]
  effect on release and activity of MPO: no effect
